# Experimental data: PMC4456386, “Ligand Recognition of the Major Birch Pollen Allergen Bet v 1 is Isoform Dependent” (PLoS ONE, 2015)
# Several values for one entry are separate records, joined by “and”; a condition that tells them apart may be missing. Equal values may be shown once.
# What was measured:
# [1] = biological target: T1, Bet v 1m (Betula pendula, UniProt P43186); test: 1H-15N HSQC NMR titration (chemical shift perturbation) of 15N-Bet v 1m; assay type: binding, Betula verrucosa
# T1 construct: made in house
# Procedure: (§1) All NMR experiments were performed at 298 K in 50 mM sodium phosphate buffer, 50 mM NaCl, pH 7.0, 10% deuterium oxide (^2H2O) with ^15N-uniformly labelled Bet v 1 isoforms using Bruker Avance 700 MHz and Avance 800 MHz spectrometers with cryogenically cooled triple-resonance probes equipped with pulsed field-gradient capabilities. NMR data were processed using NMRPipe and visualized with NMRViewJ [89]. Three-dimensional ^15N-edited NOESY (nuclear Overhauser enhancement spectroscopy, mixing times 120 ms) experiments to assign chemical shifts were obtained with 500 μM ^15N-labeled samples of Bet v 1 isoform d or m and yielded 91% of assigned residues for Bet v 1d and 89% for Bet v 1m. The sequence-specific assignments of the amide resonances of Bet v 1a are reported elsewhere.
# (§2) Interaction of Q3OS with the Bet v 1 isoforms was measured by incubating 700 μM Q3OS with 50 μM of each ^15N-labeled Bet v 1 isoform in 50 mM sodium phosphate, 50 mM NaCl buffer, pH 7.0.
# (§3) For titration experiments all other flavonoids were dissolved in deuterated DMSO, while glucose and galactose were dissolved in 50 mM sodium phosphate buffer, 50 mM NaCl, pH 7.0, 10% deuterium oxide and titrated stepwise to a final excess of up to 17-fold to protein samples (ca. 100 μM). […] CSPs for ligand binding were calculated based on Eq (2): […] (2) ΔδHN and ΔδN, chemical shift differences of amide proton and nitrogen resonances, respectively, in ppm.
# (§4) K d values for flavonoid binding were determined with NMRViewJ [89]. All analysable amino acid residues that were unaffected by DMSO addition and showing CSPs > 0.08 ppm were fitted to a quadratic binding curve with default settings, and an average K d app was calculated (Table 1 and S1–S3 Tables). The CSPs of all residues showing CSPs > 0.04 ppm were mapped either on models of Bet v 1d and Bet v 1m or on the Bet v 1a structure (pdb code 1BV1, [29]).
# [2] = UV/VIS absorption spectra of unbound flavonoids; assay type: physicochemical; settings: pH 7.0
# Procedure: (§5) All flavonoids and Bet v 1 isoforms were dissolved in 50 mM sodium phosphate, 50 mM NaCl, 10% (v/v) DMSO, pH 7.0, to a final concentration of 10 to 20 μM in 500 μl. Absorption spectra from 200–800 nm were recorded at 25°C in a 1 cm quartz cuvette (Hellma GmbH) using a 8453 UV-visible spectrophotometer (Agilent).
# [3] = biological target: T2, Bet v 1a (Betula pendula, UniProt P15494); test: UV/VIS equilibrium titration of flavonoids with Bet v 1a; assay type: binding, Betula verrucosa; settings: for Kd: Dissociation constant Kd, UV/VIS titration, 298 K, pH 7.0, 10% DMSO, error = standard error of fit; for Absorption maxima, Bet v 1a:Flavonoid: complex with Bet v 1a
# T2 construct: made in house
# Procedure: as §5
# (§6) To further characterize flavonoid binding to Bet v 1, titration experiments were performed by adding small amounts of concentrated Bet v 1 isoform a, d or m to different flavonoids. Changes of flavonoid absorption occurring at specific wavelengths were plotted against the protein concentration. Prior to curve-fitting, absorbance data were corrected for dilution. If possible, the equilibrium dissociation constant (K d) was determined by non-linear regression analysis of the data with GraFit-5 (Version 5.0, Erithacus Software, UK) using the following Eq (1): ΔA=ΔAmax/2Q[(B+Q+Kd)-((B+Q+Kd)^2-[…])] (1) ΔA max, maximum change in absorbance at specific wavelengths; B, Bet v 1a concentration; Q, total flavonoid concentration.
# [4] = biological target: T3, Bet v 1d (Betula pendula, UniProt P43177); test: UV/VIS equilibrium titration of flavonoids with Bet v 1d; assay type: binding, Betula verrucosa; settings: for Absorption maxima, Bet v 1d:Flavonoid: complex with Bet v 1d
# T3 construct: made in house
# Procedure: as §5, §6
# [5] = biological target: T2, Bet v 1a; test: 1H-15N HSQC NMR titration (chemical shift perturbation) of 15N-Bet v 1a; assay type: binding, Betula verrucosa; settings: for Kd per residue / Kd / Dissociation constant Kd (averaged Kd app): Bet v 1a; for binding to Bet v 1a (in words): 1H-15N HSQC titration
# Procedure: as §1, §2, §3, §4
# [6] = biological target: T1, Bet v 1m; test: UV/VIS equilibrium titration of flavonoids with Bet v 1m; assay type: binding, Betula verrucosa; settings: for Absorption maxima, Bet v 1m:Flavonoid: complex with Bet v 1m
# Procedure: as §5, §6
# [7] = biological target: T3, Bet v 1d; test: 1H-15N HSQC NMR titration (chemical shift perturbation) of 15N-Bet v 1d; assay type: binding, Betula verrucosa; settings: for binding to Bet v 1d (in words): 1H-15N HSQC titration, up to 15-fold excess
# Procedure: as §1, §2, §3, §4
# [8] = biological target: T1, Bet v 1m; test: 1H-15N HSQC NMR titration (chemical shift perturbation) of 15N-Bet v 1m; assay type: binding, Betula verrucosa; settings: 1H-15N HSQC titration, up to 15-fold excess
# [9] = tested on: serum IgE binding to surface-coated Bet v 1a, Bet v 1d and Bet v 1m; test: Indirect ELISA for IgE binding to Bet v 1 isoforms; set-up: species or system human; settings: 5-fold molar excess of ligand; isoforms a, d, m
# Description: Fifteen sera of birch pollen-allergic subjects were collected, tested, and pooled according to the guideline of the European Medicines Agency (EMEA/CHMP/BWP/304831/2007). The serum pool is routinely used for batch-release testing of birch pollen-derived allergenic products at the Paul-Ehrlich-Institut. The same serum pool was used for both, ELISA and mediator release assays.
# For IgE-ELISA experiments, Maxisorp plates (Nunc via Fisher Scientific) were coated overnight at room temperature with 50 ng/100 μl recombinant Bet v 1 isoforms a, d, or m with a 5-fold molar excess of quercetin-3-O-sophorose, rutin, quercetin, quercetin-3-O-glucoside, quercetin-3-O-galactoside, or sophorose, respectively, in phosphate-buffered saline (PBS). After blocking with PBS containing 2% bovine serum albumin (BSA) these plates and an uncoated control were incubated with a dilution series of a serum pool of birch-pollen allergic subjects for 1 h at room temperature with PBS containing 0.05% Tween 20 and 0.1% BSA. Allergen-specific human IgE was detected with a horseradish peroxidase-conjugated mouse anti-human IgE antibody (Clone B3102E8, Southern biotech via Biozol, Eching, Germany) diluted 1:1000. 3,3′,5,5′-tetramethylbenzidine (Roth, Karlsruhe) was used as substrate for horseradish peroxidase, and the absorbance at 450 nm was measured after stopping the reaction with 25% H2SO4.
# [10] = Dissociation constant Kd (averaged Kd app), NMR, average of all analysable residues with CSPs > 0.08 ppm, ± standard deviation
# [11] = Kd per residue, one value per residue with Δδnorm > 0.08 ppm (residue named left of the cell), Int. Ex. = intermediate exchange
# [12] = one value per residue with Δδnorm > 0.08 ppm (residue named left of the cell), Int. Ex. = intermediate exchange
# [13] = NMR, Bet v 1d, average of all analysable residues with CSPs > 0.08 ppm, ± standard deviation
# [14] = NMR, average of all analysable residues with CSPs > 0.08 ppm, ± standard deviation
# T1 sequence (P43186 whole entry): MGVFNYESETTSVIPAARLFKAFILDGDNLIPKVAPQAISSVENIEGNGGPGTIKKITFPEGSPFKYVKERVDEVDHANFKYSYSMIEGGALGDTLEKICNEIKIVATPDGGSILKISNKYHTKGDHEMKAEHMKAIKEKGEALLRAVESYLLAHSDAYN
# T3 sequence (P43177 whole entry): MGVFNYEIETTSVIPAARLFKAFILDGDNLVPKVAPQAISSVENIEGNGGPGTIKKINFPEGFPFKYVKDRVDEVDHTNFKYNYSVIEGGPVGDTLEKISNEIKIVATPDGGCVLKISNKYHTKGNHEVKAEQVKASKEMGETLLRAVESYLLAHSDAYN
# T2 sequence (P15494 whole entry): as the sequence (P43177 whole entry) above, with I8T, V31F, N58S, V92I, C113S, V114I, N126D counted along it
SMILES,"Kd [1, 10] [µM]","Kd [1, 11]","Kd per residue [1, 12]","Absorption maxima, Flavonoid [2] [nm]",Kd ([3]; Bet v 1a) [µM],"Absorption maxima, Bet v 1a:Flavonoid [3] [nm]",Kd [4] [µM],"Absorption maxima, Bet v 1d:Flavonoid [4] [nm]","Kd per residue [5, 12]","Kd [5, 10]","Kd [5, 11]",Kd [6] [µM],"Absorption maxima, Bet v 1m:Flavonoid [6] [nm]",influence of ligand on IgE binding of Bet v 1 isoforms [9],also measured
"O=c1c(O)c(-c2ccc(O)c(O)c2)oc2cc(O)ccc12 [Fisetin, fisetin]",85.1 ± 21.7,150 µM and 28.9 µM and 109 µM and 111 µM and 81.3 µM and 20.4 µM,Int. Ex.,368,14.3 ± 1.1,372,13.9 ± 2.1,371,Int. Ex.,37.2 ± 6.5 µM,18.2 µM and 39.4 µM and 72.5 µM and 16.1 µM and 53.5 µM and 48 µM and 36.8 µM and 18.6 µM and 28.6 µM and 17.4 µM and 16.8 µM,68.6 ± 12.4,370,–,–
"O=c1cc(-c2ccccc2)oc2ccccc12 [Flavone, flavone]",213 ± 36.6,–,–,302,–,–,–,–,–,67.1 ± 12.1 µM,–,–,–,–,"Kd ([7]; Dissociation constant Kd (averaged Kd app), NMR, Bet v 1d, average of all analysable residues with CSPs > 0.08 ppm, ± standard deviation): 69.9 ± 14.8 µM"
"O=C[C@H](O)[C@@H](O)[C@@H](O)[C@H](O)CO [Galactose, galactose]",–,–,–,–,–,–,–,–,–,–,–,–,–,–,"binding to Bet v 1d (in words) [7]: no detectable affinity; Dissociation constant Kd (averaged Kd app) [7, 13]: No binding; Dissociation constant Kd (averaged Kd app) [1, 14]: No binding; binding to Bet v 1a (in words) [5]: no detectable affinity; Dissociation constant Kd (averaged Kd app) [5, 14]: No binding; binding to Bet v 1m (in words) [8]: no detectable affinity"
"OC[C@H]1OC(O)[C@H](O)[C@@H](O)[C@@H]1O (stereo partly drawn) [Glucose, glucose]",–,–,–,–,–,–,–,–,–,–,–,–,–,–,"binding to Bet v 1d (in words) [7]: no detectable affinity; Dissociation constant Kd (averaged Kd app) [7, 13]: No binding; Dissociation constant Kd (averaged Kd app) [1, 14]: No binding; binding to Bet v 1a (in words) [5]: no detectable affinity; Dissociation constant Kd (averaged Kd app) [5, 14]: No binding; binding to Bet v 1m (in words) [8]: no detectable affinity"
"O=c1c(O)c(-c2cc(O)c(O)c(O)c2)oc2cc(O)cc(O)c12 [Myricetin, myricetin]",99.3 ± 19.4,75.3 µM and 161 µM and 24.4 µM and 88.5 µM and 126 µM and 120 µM,Int. Ex.,378,4.2 ± 0.7,387,1.2 ± 0.2,382,Int. Ex.,14.6 ± 6.5 µM,5 µM and 11.6 µM and 26.9 µM,–,–,–,fold higher affinity than flavone ([3]; Bet v 1a): 15 fold; fold higher affinity than flavone ([4]; Bet v 1d): 60 fold
"O=C1C[C@@H](c2ccc(O)cc2)Oc2cc(O)cc(O)c21 [Naringenin, naringenin]",22.1 ± 5.5,8.2 µM and 13.6 µM and 19 µM and 39.6 µM and 27.1 µM,Int. Ex.,325,60.6 ± 3.2,325,37.7 ± 6.4,325,Int. Ex.,~30 µM and 30 µM,–,28.1 ± 0.8,322,–,–
"O=c1c(O)c(-c2ccc(O)c(O)c2)oc2cc(O)cc(O)c12 [Quercetin, quercetin]",65.8 ± 8.2,–,Int. Ex,377,9.2 ± 0.6,382,10.2 ± 1,382,Int. Ex.,31.4 ± 10.3 µM,69.1 µM and 36.8 µM and 11.1 µM and 21.6 µM and 18.6 µM,26.5 ± 1.5,381,did not modify IgE-binding,–
C[C@@H]1O[C@@H](OC[C@H]2O[C@@H](Oc3c(-c4ccc(O)c(O)c4)oc4cc(O)cc(O)c4c3=O)[C@H](O)[C@@H](O)[C@@H]2O)[C@H](O)[C@H](O)[C@H]1O [rutin],–,–,–,–,–,–,–,–,–,–,–,–,–,did not modify IgE-binding,–
OC[C@H]1O[C@@H](O[C@H]2C(O)O[C@H](CO)[C@@H](O)[C@@H]2O)[C@H](O)[C@@H](O)[C@@H]1O (stereo partly drawn) [sophorose],–,–,–,–,–,–,–,–,–,–,–,–,–,did not modify IgE-binding,–
